{
  "source": "paper PMC10762662",
  "about": "“An orally-available monovalent SMAC mimetic compound as a broad-spectrum antiviral” (Protein & Cell, 2023)",
  "assay_in_all_cases": "BIR3 domain binding IC50 (assay format not stated)",
  "key": {"[1]": {"target": "T1, cIAP1 (Homo sapiens, UniProt Q13490)", "T1 construct": "gene BIRC2; BIR3 domain", "T1 sequence (Q13490 264-331 limits assumed)": "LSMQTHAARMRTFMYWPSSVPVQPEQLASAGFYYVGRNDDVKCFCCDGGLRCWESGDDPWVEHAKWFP"}, "[2]": {"target": "T2, cIAP2 (Homo sapiens, UniProt Q13489)", "T2 construct": "gene BIRC3; BIR3 domain", "T2 sequence (Q13489 250-317 limits assumed)": "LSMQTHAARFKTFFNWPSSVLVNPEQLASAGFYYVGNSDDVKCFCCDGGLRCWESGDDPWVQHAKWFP"}, "[3]": {"target": "T3, XIAP (Homo sapiens, UniProt P98170)", "T3 construct": "BIR3 domain", "T3 sequence (P98170 241-356 limits assumed)": "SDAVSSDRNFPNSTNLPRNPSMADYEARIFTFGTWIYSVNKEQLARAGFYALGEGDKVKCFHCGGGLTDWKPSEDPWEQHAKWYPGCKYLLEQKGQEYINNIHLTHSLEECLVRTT"}},
  "data": [
    {"smiles": "CN[C@@H](C)C(=O)Nc1ccc(-c2c(C)nc3ccccn23)c(C#Cc2ccc3ncccc3c2)n1", "note": "[BI-82]", "values": [
      {"measurement": "IC50", "setting": "[1]", "value": "0.0009 ± 0.00015", "unit": "µM"},
      {"measurement": "IC50", "setting": "[2]", "value": "0.0171 ± 0.00537", "unit": "µM"},
      {"measurement": "IC50", "setting": "[3]", "value": "0.273 ± 0.0825", "unit": "µM"}
    ]}
  ]
}
